Measurements: patent US20020037872A1, “N6 heterocyclic 5' modified adenosine derivatives” (CV Therapeutics, Inc., priority 1999, published 2002)

Legend:
A1 adenosine receptor [1] = target: T1, A1 adenosine receptor (Mesocricetus auratus, UniProt A0A1U8BVR4); assay: [35S]GTPγS binding assay, A1-agonist stimulated; assay type: biochemical, hamster; settings: […], agonist stimulated [35S]GTPγS binding, CPA = 100%
T1 construct: endogenous in cells; host or cells: DDT1 (DDT1 MF-2) hamster vas deferens smooth muscle cells
T1 sequence (A0A1U8BVR4 1-326): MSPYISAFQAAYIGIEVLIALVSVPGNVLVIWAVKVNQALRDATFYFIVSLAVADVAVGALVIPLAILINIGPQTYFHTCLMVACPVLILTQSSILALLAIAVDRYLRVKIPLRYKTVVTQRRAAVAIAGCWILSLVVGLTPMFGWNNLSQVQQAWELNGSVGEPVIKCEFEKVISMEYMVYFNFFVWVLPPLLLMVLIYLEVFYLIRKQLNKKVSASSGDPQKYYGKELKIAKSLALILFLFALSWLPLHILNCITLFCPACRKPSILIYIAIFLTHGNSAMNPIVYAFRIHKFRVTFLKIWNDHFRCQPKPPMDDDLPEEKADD
In short: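 Membranes in 50 mM Tris-HCl pH 7.4, 5 mM MgCl2, 100 mM NaCl, 1 mM DTT used for A1-agonist-stimulated [35S]GTPγS binding, read by filtration. Nonspecific binding defined with 10 μM GTPγS. Saturation runs used 0.5 nM [35S]GTPγS with 0.5–1000 nM GTPγS.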

A1 adenosine receptor [2] = target: T2, A1 adenosine receptor (Cavia porcellus, UniProt P47745); assay: Guinea pig isolated perfused heart: S-H interval, heart rate, atrial MAP
T2 construct: The hearts were quickly removed and rinsed in ice-cold Krebs-Henseleit solution; from tissue; host or cells: guinea pig isolated perfused heart
T2 sequence (P47745 1-326): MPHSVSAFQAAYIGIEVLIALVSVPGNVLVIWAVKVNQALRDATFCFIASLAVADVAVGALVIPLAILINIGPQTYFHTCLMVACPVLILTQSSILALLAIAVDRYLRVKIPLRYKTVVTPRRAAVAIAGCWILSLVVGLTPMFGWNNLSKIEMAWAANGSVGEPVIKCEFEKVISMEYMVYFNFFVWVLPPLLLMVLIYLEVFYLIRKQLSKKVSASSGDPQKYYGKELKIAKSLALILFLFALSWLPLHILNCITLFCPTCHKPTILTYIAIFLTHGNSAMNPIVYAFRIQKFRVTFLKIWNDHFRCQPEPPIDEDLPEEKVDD
Protocol: (§1) Guinea pigs of either sex weighing 250-300 g were anesthetized with methoxyflurane and killed by cervical dislocation. The hearts were quickly removed and rinsed in ice-cold Krebs-Henseleit solution. The aorta was cannulated and the heart retrogradely perfused at a constant flow of 10 ml min^−1 with modified Krebs-Henseleit solution containing (mM): NaCL 117.9, KCl 4.8, CaCl2 2.5, MgSO4 1.18, KH2PO4 1.2, Na2EDTA 0.5, ascorbic acid 0.14, glucose 5.5, pyruvic acid (sodium salt) 2.0, and NaHCO3 25. The K—H solution was oxygenated with 95% oxygen and 5% CO2, pH 7.4, and temperature maintained at 36° C.
Hearts were electrically paced at a cycle length of 290-300 ms (unless otherwise indicated) using a bipolar electrode placed on the right atrium or ventricle. The stimulator, an interval generator (Model 1830, WPI, Sarasota, Fla., U.S.A.) delivered stimuli through a stimulus isolation unit (Model 1880, WPI) as square wave pulses of 3 ms in duration and at least twice the threshold intensity. The stimulus-to-His bundle (S—H) interval was used as index of AV nodal conduction time and was measured on-line during constant atrial pacing from microcomputer with a DT-208 1A interface board (Axon Instruments, Burlingame, Calif., U.S.A.) In experiments to study the chronotropic effect (effect on heart rate) of A1 AdoR agonists, the hearts were allowed to beat spontaneously. An atrial electrogram was used to record the electrical activity of the atria and to measure the heart rate.
Monophasic action potentials (MAP) were recorded using a pressure contact silver-silver chloride electrode (Langendorf Probe, EP Technologies, Inc., Sunnyvale, Calif., U.S.A.) placed on the surface of the left atrium. […] Signals were considered adequate if they were stable for at least 5 min and the amplitudes of the MAPs exceeded 10 mV. The data were digitized at 2 kHz by a DT-2801A digitizing board (Data Translation, Marlboro, Mass., U.S.A.) and stored using the Snapshot data acquisition program (Snapshot Storage Scope, HEM Data Corp., Southfield, Mich., U.S.A.) for later analysis. The duration of the atrial monophasic action potential was measured at 90% repolarization (MAPD90), using the Snapshot program. After completion of dissection and instrumentation, the hearts were allowed to equilibrate for 30 min before the experiments were begun. Whenever the baseline and post-intervention (washout) values differed by more than 15% the data were discarded. Approximately 60-70% of the experiments conformed with this criteria.

A2A AdoR = target: T3, A2A AdoR (Cavia porcellus, UniProt P46616); assay: Guinea pig isolated perfused heart: coronary vasodilation (coronary conductance); settings: guinea pig isolated perfused hearts; read-out: EC50 to cause coronary vasodilation
T3 construct: from tissue; host or cells: guinea pig isolated perfused heart
Protocol: as §1
Coronary perfusion pressure was measured using a pressure transducer that was connected to the aortic cannula via a T-connector. Coronary perfusion pressure (in mmHg) was monitored throughout an experiment and recorded on a 4-channel Gould strip-chart recorder (Gould RS3400, Cleveland, Ohio, U.S.A.). Coronary conductance (in ml min^−1 mmHg^−1) was calculated as the ratio of coronary perfusion rate (10 ml min^−1) and perfusion pressure (mmHg).

T3 sequence (P46616 whole entry, the tested form may be a part): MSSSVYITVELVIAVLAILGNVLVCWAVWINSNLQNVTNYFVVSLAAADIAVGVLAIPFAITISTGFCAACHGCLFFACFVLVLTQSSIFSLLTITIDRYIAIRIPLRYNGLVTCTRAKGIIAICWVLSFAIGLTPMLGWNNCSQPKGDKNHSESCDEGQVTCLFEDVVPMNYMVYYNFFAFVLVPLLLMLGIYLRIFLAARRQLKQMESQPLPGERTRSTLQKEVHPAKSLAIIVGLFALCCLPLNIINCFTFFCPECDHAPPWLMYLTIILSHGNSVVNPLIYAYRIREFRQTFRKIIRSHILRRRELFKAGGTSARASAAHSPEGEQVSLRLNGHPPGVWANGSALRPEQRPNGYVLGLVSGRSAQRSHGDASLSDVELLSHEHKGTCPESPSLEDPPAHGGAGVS

## CNC(=O)OC[C@H]1O[C@@H](n2cnc3c(N[C@@H]4CCOC4)ncnc32)[C@H](O)[C@@H]1O [Compound 6, (5-16[((3R)oxolan-3-yl)aminolpurin-9-yl)(3S,2R,4R,5R)-3,4dihydroxyoxolan-2yl)methoxyl-N-methylearboxamide]
A1 adenosine receptor [1]
  Emax: 48%
A1 adenosine receptor [2]
  agonist character at A1 AdoR: true partial A1 AdoR agonist
A1 adenosine receptor [2]; Compound 6 2 and 10 μm, atrial cycle length 300 msec, FIG. 3
  antagonism of S-H interval prolongation caused by full agonist CPA: antagonizes the negative dromotropic effect
A1 adenosine receptor [2]; FIG. 1 panel B
  effect on atrial monophasic action potential: no effect
A1 adenosine receptor [2]; FIG. 1 panel C
  effect on AV nodal conduction time (S-H interval): concentration-dependent and significant increase in AV nodal conduction time
  second-degree AV block: without causing second-degree AV block at any concentration tested
A1 adenosine receptor [2]; guinea pig isolated perfused hearts, read-out: EC50 to prolong S-H interval (negative dromotropic effect)
  EC50: 2.8 ± 1.3 µM
A1 adenosine receptor [2]; ratio of potencies
  selectivity: S-H interval prolongation versus increase of coronary conductance: at least 10 fold
A1 adenosine receptor [2]; spontaneously beating hearts, FIG. 1 panel A
  effect on heart rate (chronotropic): did not slow heart rate
A2A AdoR
  EC50: 31 ± 5.1 µM
